One data set has as its system Ehrlich ascites. Kind of data set: Ehrlich ascites in A2G mice, single intraperitoneal treatment. Particulars: for toxic side effects: animals followed up to one month. On the procedure:
Normal A2G mice were transplanted 24 hours prior to treatment with 1,000,000 Ehrlich ascites cells. Treatment procedures consisted of a single intraperitoneal injection of malachite green 4/mg/kg or brilliant green 2 mg/kg, with or without 0.7% levorotatory lactic acid.
A lot of 50 A2G mice with a bodyweight of approximately 25 g each were infected with Ehrlich ascites 48 hours prior to treatment. Treatment consisted of one intraperitoneal injection of 1.0 cm^3 brilliant green 1:20,000 solution (2 mg per kilogram) or 1.0 cm^3 of malachite green 1:10,000 (4 mg per kilogram), with 0.7% levorotatory lactic acid.

The test system of another data set is Ehrlich ascites cells. Description: Transmission electron microscopy of Ehrlich ascites cells from intraperitoneal liquid after treatment. The data set is classed as cell-based, A2G mice.
The mark [1] stands for this setting: single intraperitoneal injection, malachite green 4/mg/kg or brilliant green 2 mg/kg, with or without 0.7% levorotatory lactic acid.

As to `CCN(CC)c1ccc(C(=C2C=CC(=[N+](CC)CC)C=C2)c2ccccc2)cc1` [brilliant green], the toxic side effects entry with Ehrlich ascites (setting [1]) is “no obvious toxic side effects were observed”.
With `CN(C)c1ccc(C(=C2C=CC(=[N+](C)C)C=C2)c2ccccc2)cc1` [malachite green], in the data set with Ehrlich ascites (setting [1]), the “resolution of Ehrlich ascites” value is listed as “ability to resolve Ehrlich ascites” and the toxic side effects result is “no obvious toxic side effects were observed”. The “effect of blocking malignancies” value in the data set on Ehrlich ascites (with lactic acid as specific vector and metabolite, in vitro and in vivo) was “irreversible effect of blocking malignancies both in vitro and in vivo”. Also, the “inactivation of malignant cells (electron microscope study of intraperitoneal liquid samples)” value in the data set on Ehrlich ascites cells (one i.p. injection of brilliant green 1:20,000 (2 mg per kilogram) or malachite green 1:10,000 (4 mg per kilogram) with 0.7% levorotatory lactic acid, samples at different times) is reported as “complete inactivation of the malignant cells”. Moreover, the “lipid droplet synthesis (TEM)” value in the data set on Ehrlich ascites cells (twenty-four hours after the treatment) is given as “slowed down”. Further, the “morphology (TEM) of ascites cells in peritoneal fluid” value with Ehrlich ascites cells (two weeks post treatment) is “characteristic cytostatic morphology consistent with interruption of cell cycling”.

The record behind these values is US20030114403A1, “Method for treatment of cancers and antineoplastic pharmaceutical formulations” (CANADA Inc., priority 2001, published 2003).
